Source: US10780057B2, “Casein-based silica dual drug-loading composite microcapsule and preparation method therefor” (SHAANXI UNIVERSITY OF SCIENCE & TECHNOLOGY, priority 2016, dated 2020)

What was measured:
[1] = Drug loading efficiency of casein-based silica dual drug-loaded composite microcapsule; format: physicochemical; conditions: casein-based SiO2 dual-loaded microcapsules; drug A ibuprofen on outer wall of capsule, drug B aspirin in core of capsule
Excerpt: (§1) The samples used in Table 1 were the casein-based SiO2 dual-loaded microcapsules obtained by loading the drug A-buprofen on the outer wall of the capsule and the drug B aspirin in the core of the capsule.

[2] = Cumulative drug release from casein-based silica dual drug-loaded composite microcapsule; format: physicochemical; conditions: after 40 h; casein-based SiO2 dual-loaded microcapsules; drug A ibuprofen on outer wall of capsule, drug B aspirin in core of capsule
Excerpt: as §1

Structure (SMILES) | Drug loading efficiency (%) [1] [%] | 40 h cumulative release rate (%) [2] [%]
CC(C)Cc1ccc(C(C)C(=O)O)cc1 (stereo not shown) [Drug A: ibuprofen, ibuprofen] | 69 | 88
CC(=O)Oc1ccccc1C(=O)O [Drug B: aspirin, aspirin] | 86 | 60
